From PubChem BioAssay (NCI) come the findings set out here.

SMILES strings stand for the structures.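 48-hour exposure; five concentrations; linearly interpolated endpoints. GI50 is the concentration that inhibits growth by half. The concentration for full growth arrest is given as TGI.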

Some test systems named below: SNB-19 CNS; LOX IMVI melanoma; TK-10 renal; SF-295 CNS; MCF7 breast; EKVX NSCLC; SK-MEL-2 melanoma; UACC-62 melanoma; HOP-92 NSCLC; RPMI-8226 leukemia; NCI-H460 lung.
What all share (experiment): inhibition of tumour cell growth, NCI panel, 48 h

On to `CC1=C(C)[C@@]2(C)O[C@@]2(C)O[C@@]2(C)O[C@@]12C`, for which the TGI in the assay on SNB-19 CNS, in the assay on LOX IMVI melanoma, with TK-10 renal, in the assay on SF-295 CNS, in the assay on MCF7 breast and in the assay on EKVX NSCLC was above 100 µM each time. The TGI in the assay on SK-MEL-2 melanoma, with UACC-62 melanoma and with HOP-92 NSCLC was above 100 µM throughout.

With `O=C([O-])CC(=O)[O-].O=C([O-])CC(=O)[O-].[K+].[Pd+2]`, the GI50 with SNB-19 CNS, with LOX IMVI melanoma, with TK-10 renal, in the assay on SF-295 CNS, in the assay on RPMI-8226 leukemia and with EKVX NSCLC was above 100 µM throughout. The GI50 in the assay on NCI-H460 lung, in the assay with SK-MEL-2 melanoma and in the assay with UACC-62 melanoma was above 100 µM in each case. In addition, the TGI with SNB-19 CNS, in the assay with LOX IMVI melanoma, in the assay with TK-10 renal, in the assay with SF-295 CNS, in the assay with RPMI-8226 leukemia and with EKVX NSCLC was above 100 µM each time. Also, the TGI in the assay on NCI-H460 lung, in the assay with SK-MEL-2 melanoma and with UACC-62 melanoma was above 100 µM in each case.

For the molecule `O=C(Nc1ccc(C2=NCCN2)cc1)c1cncc(C(=O)Nc2ccc(C3=NCCN3)cc2)c1`, the TGI in the assay with SNB-19 CNS, with LOX IMVI melanoma, with SF-295 CNS, with RPMI-8226 leukemia, with MCF7 breast and in the assay with EKVX NSCLC was above 100 µM throughout. The TGI in the assay on NCI-H460 lung, in the assay with SK-MEL-2 melanoma, with UACC-62 melanoma and in the assay with HOP-92 NSCLC was above 100 µM each time.

In the case of `CCOC(=O)C(NC(C)=O)(Nc1ccc(F)cc1)C(F)(F)F` (stereo not drawn), the TGI in the assay with SNB-19 CNS, in the assay with LOX IMVI melanoma, in the assay on TK-10 renal, in the assay on SF-295 CNS, in the assay on RPMI-8226 leukemia and with MCF7 breast was above 100 µM throughout. Besides, the TGI in the assay on EKVX NSCLC, with NCI-H460 lung, with SK-MEL-2 melanoma, in the assay with UACC-62 melanoma and with HOP-92 NSCLC was above 100 µM in each case.
